Converted amounts (≈) assume the structure as drawn. Read-outs that look alike come from different tables or passages of the source.
Key:
JUNV strain IV4454 = test: microbe, parasite or virus in culture; settings: Mammarenavirus juninense, Vero, 48 h
BK virus = test: microbe, parasite or virus in culture; assay type: cell-based; settings: Betapolyomavirus hominis
Vaccinia = test: microbe, parasite or virus in culture; assay type: cell-based; settings: Orthopoxvirus vaccinia
[1] = tested on: influenza A virus (IAV) strain PR8 (H1N1); assay type: cell-based
Varicella-zoster virus = test: microbe, parasite or virus in culture; assay type: cell-based; settings: Human alphaherpesvirus 3
HIV-1 isolate MDR769 = test: microbe, parasite or virus in culture; settings: Human immunodeficiency virus 1, PBMC
JUNV strain Candid-1 [2] = test: microbe, parasite or virus in culture; settings: Mammarenavirus juninense, A549, 48 h
[3] = tested on: Junin virus strains Candid-1, XJC13 and IV4454; test: in vitro; settings: African green monkey (Vero), human (A549)
[4] = tested on: influenza A virus (IAV) strain PR8 (H1N1); assay type: cell-based; remark: listed apart in the source
DENV-4 = test: Virus yield reduction assay by qRT-PCR in Vero cells; assay type: cell-based; settings: Dengue virus, DENV4, Vero, 48 h, read-out: Antiviral Activity IC50
[5] = tested on: arenavirus Tacaribe (TCRV), strain TRLV11573; test: microbe, parasite or virus in culture; assay type: cell-based, Tacaribe virus; settings: A549
HIV-1 isolate MDR807 = test: microbe, parasite or virus in culture; settings: Human immunodeficiency virus 1, PBMC
HIV-1 isolate 1022-48 = test: microbe, parasite or virus in culture; settings: Human immunodeficiency virus 1, PBMC
in vitro [6] = settings: African green monkey
CHIKV 899 wild-type = test: Chikungunya virus-induced cell death (CPE, MTS/PMS) assay in Vero A cells
JUNV strain Candid-1 [7] = test: microbe, parasite or virus in culture; settings: Mammarenavirus juninense, Vero, 48 h
Rabies Virus = test: microbe, parasite or virus in culture; assay type: cell-based; settings: Lyssavirus rabies
HIV-1 isolate NL4-3 = test: microbe, parasite or virus in culture; settings: Human immunodeficiency virus 1, NL43, PBMC
Norovirus = test: microbe, parasite or virus in culture; assay type: cell-based
JUNV strain XJCl3 = test: microbe, parasite or virus in culture; settings: Mammarenavirus juninense, A549, 48 h
three JUNV strains = test: microbe, parasite or virus in culture; settings: Mammarenavirus juninense, read-out: EC50 values, range depending on the virus strain and the host cell
in vitro [8] = settings: African green monkey, CC50 (Neutral Red)
[9] = tested on: arenavirus Tacaribe (TCRV), strain TRLV11573; test: microbe, parasite or virus in culture; assay type: cell-based, Tacaribe virus; settings: Vero
HIV-1 92HT599 = test: microbe, parasite or virus in culture; settings: Human immunodeficiency virus 1, PBMC
HIV-2 CBL20 H9 = test: microbe, parasite or virus in culture; settings: Human immunodeficiency virus 2, PBMC
HIV-1 MDR 769 = test: microbe, parasite or virus in culture; settings: Human immunodeficiency virus 1, PBMC
[10] = in vivo; cited from earlier work
HIV-1 isolate A17 = test: microbe, parasite or virus in culture; settings: Human immunodeficiency virus 1, PBMC
Vero cells = settings: African green monkey
DENV-2 = test: Virus yield reduction assay by qRT-PCR in Vero cells; assay type: cell-based; settings: Dengue virus, DENV2, Vero, 48 h, read-out: Antiviral Activity IC50
[11] = long term oral exposures up to 33 weeks; cited from earlier work
HIV-1 isolate 4736_4 = test: microbe, parasite or virus in culture; settings: Human immunodeficiency virus 1, PBMC

NCC(=O)Nc1ccc(-n2nc(C(F)(F)F)cc2-c2ccc3c(ccc4ccccc43)c2)cc1 [AR-12, 2-amino-N-(4-(5-(phenanthren-2-yl)-3-(trifluoromethyl)-1H-pyrazol-1-yl)phenyl)acetamide]
EC50 (JUNV strain IV4454): 510 ± 50 nM | EC50 (BK virus): > 2400 nM | EC90 (BK virus): > 2400 nM | EC50 (Vaccinia): > 2400 nM | EC90 (Vaccinia): > 2400 nM | viral protein production is reduced [1]: at least 50% | EC50 (Varicella-zoster virus): 1150 nM | EC90 (Varicella-zoster virus): 1680 nM | IC90 (HIV-1 isolate MDR769): 848 nM | IC90 (HIV-1 isolate MDR769; read-out: IC50): 3820 nM | EC50 (JUNV strain Candid-1 [2]): 150 ± 20 nM | selectivity ratio [3]: 35.1 to 129 | viral infection (% infection) [4]: prevents viral infections | IC50 (DENV-4): 890 nM | EC50 [5]: 840 ± 20 nM | IC90 (HIV-1 isolate MDR807): 905 nM | IC90 (HIV-1 isolate MDR807; read-out: IC50): 2130 nM | IC90 (HIV-1 isolate 1022-48): 489 nM | IC90 (HIV-1 isolate 1022-48; read-out: IC50): 3680 nM | CC50 (in vitro [6]; CC50 (Neutral Red)): 1.8 µg/mL (≈ 3.91 µM) | CC50 (in vitro [6]; CC50 (neutral red)): 2.4 µg/mL (≈ 5.21 µM) | CC50 (in vitro [6]; CC50 (visual)): 2.8 µg/mL (≈ 6.08 µM) | selectivity index (CHIKV 899 wild-type; CC50/EC50, wild-type ChikV): 5.8 | EC50 (CHIKV 899 wild-type; Chikungunya virus, Vero, read-out: EC50 WT): 1100 ± 500 nM | EC50 (JUNV strain Candid-1 [7]): < 150 nM | EC50 (Rabies Virus): 2610 nM | IC90 (HIV-1 isolate NL4-3): 749 nM | IC90 (HIV-1 isolate NL4-3; read-out: IC50): 2170 nM | EC50 (Norovirus): 718 nM | EC90 (Norovirus): 8100 nM | IC50 (HIV-2 CDC 310319): 370 nM | EC50 (JUNV strain XJCl3): 550 ± 50 nM | EC50 (three JUNV strains): 150 to 550 nM | CC50 (in vitro [8]): 1.3 µg/mL (≈ 2.82 µM) | IC50 (HIV-1 91US001): 240 nM | EC50 [9]: 350 ± 30 nM | IC50 (HIV-1 92HT599): 270 nM | IC50 (HIV-2 CBL20 H9): 510 nM | IC50 (HIV-1 MDR 769): 310 nM | accumulation in tissues [10]: appreciable accumulation in tissues | blood brain barrier penetration [10]: rapid blood brain barrier penetration | IC90 (HIV-1 isolate A17): 914 nM | IC90 (HIV-1 isolate A17; read-out: IC50): 6640 nM | MNTD (Vero cells): > 10 µM | IC50 (DENV-2): 800 nM | safety profile [11]: acceptable safety profile | IC90 (HIV-1 isolate 4736_4): 762 nM | IC90 (HIV-1 isolate 4736_4; read-out: IC50): 2240 nM | CC50 (neutral red) (Vero; listed as Pichinde Virus An 4763, neutral red): 2.8 µg/mL (≈ 6.08 µM) | CC50 (visual) (Vero; listed as Pichinde Virus An 4763): 3.2 µg/mL (≈ 6.95 µM) | CC50 (visual) (Vero; listed as Yellow Fever Virus 17D): 2.8 µg/mL (≈ 6.08 µM)
